Patent publication US4071627A, “2-Oximino-tetrahydro-1,4-thiazin-5-one compounds and pesticidal carbamate derivatives” (priority 1976, dated 1978)

Experiments:
Assay type in all cases: in vivo
Parameters in all cases: key: A: excellent control; B: partial control; C: no control
[1] = tested on: bean aphid (Aphis fabae Scop.); assay: Bean Aphid Foliage Spray Test; settings: 500 ppm, 24 hours, adults and nymphs
Experimental: (§1) Suspensions of the test compounds were prepared by dissolving one gram of compound in 50 milliliters of acetone in which had been dissolved 0.1 gram (10 percent of the weight of compound) of an alkylphenoxy polyethoxyethanol surfactant, as an emulsifying or dispersing agent. The resulting solution was mixed into 150 milliliters of water to give roughly 200 milliliters of a suspension containing the compound in finely divided form. The thus-prepared stock suspension contained 0.5 percent by weight of test compound. The test concentrations in parts per million by weight employed in the tests described hereinbelow were obtained by appropriate dilutions of the stock suspension with water. The test procedures were as follows:
Adults and nymphal stages of the bean aphid (Aphis fabae Scop.) reared on potted dwarf nasturtium plants at 65°-70° F. and 50-70 percent relative humidity, constituted the test insects. For testing purposes, the number of aphids per pot was standardized to 100-150 by trimming plants containing excess aphids.
The test compounds were formulated by diluting the stock suspension with water to give a suspension containing 500 parts of test compound per million parts of final formulation.
The potted plants (one pot per compound tested) infested with 100-150 aphids, were placed on a revolving turntable and sprayed with 100-110 milliliters of test compound formulated by use of a DeVilbiss spray gun set at 40 psig. air pressure. This application, which lasted 25 seconds, was sufficient to wet the plants to run-off. As a control, 100-110 milliliters of a water-acetone-emulsifier solution containing no test compound were also sprayed on infested plants. After spraying, the pots were placed on their sides on a sheet of white standard mimeograph paper which had been previously ruled to facilitate counting. Temperature and humidity in the test room during the 24 hour holding period were 65°-70° F. and 50-70 percent, respectively. Aphids which fell onto the paper and were unable to remain standing after being uprighted were considered dead. Aphids remaining on the plants were observed closely for movement and those which were unable to move the length of the body upon stimulation by prodding were considered dead. Percent mortality was recorded for various concentration levels.
(§2) In these tests the pesticidal activity of the compounds against aphid, mite, Southern Armyworm, Mexican Bean Beetle, and house fly was rated as follows: […]

[2] = tested on: two-spotted mite (Tetranychus urticae Koch); assay: Mite Foliage Spray Test; settings: 500 ppm, six days, adults and nymphs
Experimental: as §1
Adults and nymphal stages of the two-spotted mite (Tetranychus urticae Koch), reared on Tengergreen bean plants at 80±5 percent relative humidity, were the test organisms. Infested leaves from a stock culture were placed on the primary leaves of two bean plants 6 to 8 inches in height, growing in a 21/2 inch clay pot. 150-200 Mites, a sufficient number for testing, transferred from the excised leaves to the fresh plants in a period of 24 hours. Following the 24 hour transfer period, the excised leaves were removed from the infested plants. The test compounds were formulated by diluting the stock suspension with water to give a suspension containing 500 parts of test compound per million parts of final formulation. The potted plants (one pot per compound) were placed on a revolving turntable and sprayed with 100-110 milliliters of test compound formulation by use of a DeVilbiss spray gun set at 40 psig. air pressure. This application, which lasted 25 seconds, was sufficient to wet the plants to run-off. As a control, 100-110 milliliters of a water solution containing acetone and emulsifier in the same concentrations as the test compound formulation, but containing no test compound, were also sprayed on infested plants. The sprayed plants were held at 80±5 percent relative humidity for six days, after which a mortality count of motile forms was made. Microscopic examination for motile forms was made on the leaves of the test plants. Any individual which was capable of locomotion upon prodding was considering living.
as §2

[3] = tested on: southern armyworm (Prodenia eridania, (Cram.)); assay: Southern Armyworm Leaf Spray Test; settings: 500 ppm, three days, larvae
Experimental: as §1
Larvae of the southern armyworm (Prodenia eridania, (Cram.)), reared on Tendergreen bean plants at a temperature of 80°±5° F. and a relative humidity of 50±5 percent, constituted the test insects.
The test compounds were formulated by diluting the stock suspension with water to give a suspension containing 500 parts of test compound per million parts of final formulation. Potted Tendergreen bean plants of standard height and age were placed on a revolving turntable and sprayed with 100-110 milliliters of test compound formulation by use of a DeVilbiss spray gun set at 10 psig air pressure. This application, which lasted 25 seconds, was sufficient to wet plants to run-off. As a control, 100-110 milliliters of a water-acetone-emulsifier solution containing no test compound were also sprayed on infested plants. When dry, the paired leaves were separated and each one was placed in a 9 centimeter Petri dish lined with moistened filter paper. Five randomly selected larvae were introduced into each dish and the dishes were closed. The closed dishes were labeled and held at 80°-85° F. for three days. Although the larvae cound easily consume the whole leaf within 24 hours, no more food was added. Larvae which were unable to move the length of the body, even upon stimulation by prodding, were considered dead. Percent mortality was […] for various concentration levels.
as §2

[4] = tested on: Mexican bean beetle (Epilachna varivestis, Muls.); assay: Mexican Bean Beetle Leaf Spray Test; settings: 500 ppm, three days, fourth instar larvae
Experimental: as §1
Fourth instar larvae of the Mexican bean beetle (Epilachna varivestis, Muls.), reared on Tendergreen bean plants at a temperature of 80°±5° F. and 50±5 percent relative humidity, were the test insects.
The test compounds were formulated by diluting the stock suspension with water to give a suspension containing 500 parts of test compound per million parts of final formation. Potted Tendergreen bean plants of standard height and age were placed on a revolving turntable and sprayed with 100-110 milliliters of test compound formulated by use of a DeVilbiss spray gun set at 10 psig air pressure. This application, which lasted 25 seconds, was sufficient to wet plants to run-off. As a control, 100-110 milliliters of a water-acetone-emulsifier solution containing no test compound were also sprayed on infested plants. When dry, the paired leaves were separated and each was placed in a 9 centimeter Petri dish lined with moistened filter paper. Five randomly selected larvae were introduced into each dish, and the dishes were closed. The closed dishes were labeled and held at a temperature of 80°±5° F. for three days. Although the larvae could easily consume the leaf within 24 to 48 hours, no more food was added. Larvae which were unable to move the length of the body, even upon stimulation, were considered dead.
as §2

[5] = tested on: house flies (Musca domestica, L.); assay: Fly Bait Test; settings: 500 ppm, 24 hours, adults
Experimental: as §1
Four to six day old adult house flies (Musca domestica, L.), reared according to the specifications of the Chemical Specialities Manufacturing Association (Blue Book, McNair-Dorland Co., N.Y. 1954; pages 243-244, 261) under controlled conditions of 80°±5° F. and 50±5 percent relative humidity, were the test insects. The flies were immobilized by anesthetizing with carbon dioxide and 25 immobilized individuals, males and females, were transferred to a cage consisting of a standard food strainer about 5 inches in diameter which was inverted over a wrapping-paper-covered surface. The test compounds were formulated by diluting the stock suspension with a 10 percent (by weight) sugar solution to give a suspension containing 500 parts of test compound per million parts of final formulation, by weight. Ten milliliters of the test formulation were added to a souffle cup containing a 1-inch square of an absorbent cotton pad. This bait cup was introduced and centered on the blotting paper under the food strainer prior to admitting the anesthetized flies. The caged flies were allowed to feed on the bait for 24 hours, at a temperature of 80°±5° F. and the relative humidity of 50±5 percent.
as §2

Structure (SMILES) | Biological Activity, Aphid [1] | Biological Activity, Mite [2] | Biological Activity, Southern Armyworm [3] | Biological Activity, Mexican Bean Beetle [4] | Biological Activity, House Fly [5]
CN1C(=O)CSC(=NO)C1(C)C [2-Oximino-3,3,4-trimethyltetrahydro-1,4-thiazin-5-one] | C | C | C | C | C
CC1C(=NO)SCC(=O)N1C (stereo not shown) [2-Oximino-3,4-dimethyltetrahydro-1,4-thiazin-5-one] | – | C | C | C | C
CCCCN1C(=O)CSC(=NO)C1C (stereo not shown) [2-Oximino-4-butyl-3-methyltetrahydro-1,4-thiazin-5-one] | C | C | C | C | C
CCN1C(=O)CSC(=NO)C1C (stereo not shown) [2-Oximino-4-ethyl-3-methyltetrahydro-1,4-thiazin-5-one] | C | C | C | C | C
CC(C)CN1C(=O)CSC(=NO)C1C (stereo not shown) [2-Oximino-4-isobutyl-3-methyltetrahydro-1,4-thiazin-5-one] | C | C | C | C | C
CNC(=O)ON=C1SCC(=O)N(C)C1(C)C [2-[O-(Methylcarbamoyl)oximino]-3,3,4-trimethyltetrahydro-1,4-thiazin-5-one] | B | A | B | A | A
CNC(=O)ON=C1SCC(=O)NC1(C)C [2-[O-(Methylcarbamoyl)oximino]-3,3-dimethyltetrahydro-1,4-thiazin-5-one] | A | A | A | A | A
CCCCN1C(=O)CSC(=NOC(=O)NC)C1C (stereo not shown) [2-[O-(Methylcarbamoyl)oximino]-4-butyl-3-methyltetrahydro-1,4-thiazin-5-one] | C | C | C | B | B
CCN1C(=O)CSC(=NOC(=O)NC)C1C (stereo not shown) [2-[O-(Methylcarbamoyl)oximino]-4-ethyl-3-methyltetrahydro-1,4-thiazin-5-one] | B | A | B | B | A
CNC(=O)ON=C1SCC(=O)N(CC(C)C)C1C (stereo not shown) [2-[O-(Methylcarbamoyl)oximino]-4-isobutyl-3-methyltetrahydro-1,4-thiazin-5-one] | C | C | C | C | A
CNC(=O)ON=C1SCC(=O)N(C(C)C)C1C (stereo not shown) [2-[O-(Methylcarbamoyl)oximino]-4-isopropyl-3-methyltetrahydro-1,4-thiazin-5-one] | C | B | C | C | A
CC(=O)N(C)C(=O)ON=C1SCC(=O)N(C)C1C (stereo not shown) [2-[O-(N-Acetyl-N-methylcarbamoyl)oximino]-3,4-dimethyltetrahydro-1,4-thiazin-5-one] | C | C | A | C | C
CN(C)SN(C)C(=O)ON=C1SCC(=O)NC1(C)C [2-[O-(N-Dimethylaminosulfenyl-N-methylcarbamoyl)oximino]-3,3-dimethyltetrahydro-1,4-thiazin-5-one] | A | A | A | A | A
CN(SN1CCOCC1)C(=O)ON=C1SCC(=O)NC1(C)C [2-[O-(N-Morpholinosulfenyl-N-methylcarbamoyl)oximino]-3,3-dimethyltetrahydro-1,4-thiazin-5-one] | A | – | A | A | A
CNC(=O)ON=C1SCC(=O)N(C)C1C (stereo not shown) [2-[O-(methylcarbamoyl)oximino]-3,4-dimethyltetrahydro-1,4-thiazin-5-one] | A | A | C | A | A
